Experimental data taken from patent publication US8410089B2, “Fused heterocyclic ring compound” (Takeda Pharmaceutical Company Limited, priority 2009, dated 2013).

Target: T1, human GPR119 (Homo sapiens, UniProt Q8TDV5)
T1 construct: expressed in transfected cells
T1 sequence (Q8TDV5 1-335): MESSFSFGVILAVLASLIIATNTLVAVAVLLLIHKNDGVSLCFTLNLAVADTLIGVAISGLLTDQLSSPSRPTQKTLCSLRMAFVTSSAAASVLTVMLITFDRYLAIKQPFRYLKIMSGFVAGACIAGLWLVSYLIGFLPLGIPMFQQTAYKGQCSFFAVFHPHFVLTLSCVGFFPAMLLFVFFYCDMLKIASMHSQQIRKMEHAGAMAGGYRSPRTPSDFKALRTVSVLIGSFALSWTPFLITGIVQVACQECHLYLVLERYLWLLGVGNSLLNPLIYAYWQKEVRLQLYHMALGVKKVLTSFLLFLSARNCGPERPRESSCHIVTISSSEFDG
Experiment: Human GPR119 agonist activity with increase of intracellular cAMP concentration as index (CRE-luciferase reporter assay in hGPR119/CRE-luc/CHO(dhfr-) cells)
Format: cell-based
Details: 1 μM test compound, 2 hr incubation; luciferase activity with 10 μM N-[4-(methylsulfonyl)phenyl]-5-nitro-6-{4-[4-(trifluoromethoxy)phenoxy]piperidin-1-yl}pyrimidin-4-amine = 100%, DMSO = 0%
Procedure: Evaluation of Human GPR119 Agonist Activity with Increase of Intracellular Camp Concentration as Index
(1) Construction of Expression Plasmid of Human GPR119 Gene
Using High Fidelity RNA PCR Kit (Takara Bio Inc.), human GPR119 gene was cloned by PCR using cDNA library synthesized from human brain mRNA (Clontech) as a template and synthetic DNA having the following sequence. Primer 1 and Primer 2 were is prepared by adding cleavage sites for Sal I and Nhe I based on the base sequence information of human GPR119 gene.
PCR was performed using Pyrobest DNA polymerase (Takara Bio Inc.). The obtained PCR product was cloned to pUC118 (Takara Bio Inc.), and the base sequence was […] and digested with restriction enzymes Sal I, Nhe I. The obtained DNA fragment was inserted into an animal cell expression vector pAKKO-111H (plasmid same as pAKKO-1.111H described in Biochem. Biophys. Acta, Hinuma, S. et al., 1219, 251-259 (1994)) similarly digested with Sal I, Nhe I, whereby an expression plasmid pAKKO-111H/hGPR119 was prepared.
(2) Construction of Reporter Plasmid
Zeocin resistance gene was cloned by PCR using plasmid pcDNA3.1/Zeo (Invitrogen) as a template, synthetic DNA having the following sequences wherein cleavage sites for restriction enzymes Sal I and BamH I are added to before and after a region containing SV40 Ori and a region containing SV40pA, which are located at the upstream and downstream of Zeocin resistance gene of this plasmid, as a primer set, and KOD polymerase (TOYOBO).
The obtained PCR product was inserted into pCR-BluntII (Invitrogen). A fragment containing a Zeocine resistance gene obtained by digesting the plasmid with restriction enzymes Sal I and BamH I was inserted into plasmid pGL3(R2.2)-Basic Vector (promega) similarly digested with Sal I and Bam HI to give Zeocin resistance plasmid pGL3(R2.2)/Zeocin-Basic Vector.
A reporter plasmid containing 4 cAMP responsive elements (CRE) connected in tandem was prepared using the following 5′-terminal phosphorylated synthetic DNA.
First, a DNA fragment containing a CRE sequence obtained by annealing CRE-Upper and CRE-Lower and elongating with KOD polymerase was inserted into pCR-BluntII to give pCR-BluntII-CRE. A fragment cleaved from pCR-BluntII-CRE with restriction enzymes Kpn I and Hind III was inserted into pGL3(R2.2)/Zeocin-Basic Vector similarly digested with Kpn I and Hind III to give reporter plasmid pGL3(R2.2)/Zeocin-CRE-luc.
(3) Introduction of Human GPR119 Gene and Reporter Gene into CHO(dhfr-) Cells and Acquirement of Expressing Cell
CHO(dhfr-) cells in MEMα (minimum essential medium alpha) (Nikken bio medical laboratory) medium containing 10% fetal bovine serum, 100 U/mL penicillin and 100 μg/mL streptomycin (Invitrogen) were detached by a treatment with trypsin-EDTA (ethylenediaminetetraacetic acid) (Invitrogen), the cells were washed with PBS (Phosphate-buffered saline), centrifuged (1000 rpm, 5 min) and suspended in PBS at a cell density of 1×10^7 cells/mL. Then, DNA was introduced into the cell by a gene pulser (Bio-Rad) under the following conditions. That is, 1×10^7 cells, plasmid pGL3(R2.2)/Zeocin-CRE-luc (15 μg), which was obtained in (2) and linearized with BssH II, and pAKKO-111H (5 μg) were added in a 0.4 cm gap cuvette, and the mixture was electroporated at voltage […], capacitance 950 μF. The cells were placed in the above-mentioned medium, cultured for 24 hr, and the cells were detached and centrifuged. The cells were diluted to 250 cells/well, plated in a 96 well plate (Corning) and cultivated in a CO2 incubator at 37° C. to give a transformant. Then, forskolin was added to the obtained transformant and a strain (CRE-luc/CHO(dhfr-) cell) that induces luciferase expression was selected. […]

| GPR119 agonist activity (%) at 1 μM concentration | SMILES |
| --- | --- |
| 77% | CC(C)c1noc(N2CCC(Oc3cc(N4CCc5cc(S(C)(=O)=O)cc(F)c54)ncn3)CC2)n1 [Example 64, 7-fluoro-1-[6-({1-[3-(1-methylethyl)-1,2,4-oxadiazol-5-yl]piperidin-4-yl}oxy)pyrimidin-4-yl]-5-(methylsulfonyl)-2,3-dihydro-1H-indole] |
| 79% | CCc1cnc(N2CCC(Oc3cc(N4CCc5cc(C(=O)NC(C)CO)ccc54)ncn3)CC2)nc1 (centres unmarked) [Example 23, 1-(6-{[1-(5-ethylpyrimidin-2-yl)piperidin-4-yl]oxy}pyrimidin-4-yl)-N-(1-hydroxypropan-2-yl)-2,3-dihydro-1H-indole-5-carboxamide] |
| 80% | COCCN(C)C(=O)c1ccc2c(c1)CCN2c1cc(OC2CCN(c3nc(C(C)C)no3)CC2)ncn1 [Example 31, N-(2-methoxyethyl)-N-methyl-1-[6-({1-[3-(1-methylethyl)-1,2,4-oxadiazol-5-yl]piperidin-4-yl}oxy)pyrimidin-4-yl]-2,3-dihydro-1H-indole-5-carboxamide] |
| 80% | CC(C)c1noc(N2CCC(Oc3cc(N4CCc5cc(N6CCCC6=O)ccc54)ncn3)CC2)n1 [Example 46, 1-{1-[6-({1-[3-(1-methylethyl)-1,2,4-oxadiazol-5-yl]piperidin-4-yl}oxy)pyrimidin-4-yl]-2,3-dihydro-1H-indol-5-yl}pyrrolidin-2-one] |
| 98% | CCc1cnc(N2CCC(N(c3cc(N4CCc5cc(S(C)(=O)=O)ccc54)ncn3)C(F)(F)F)CC2)nc1 [Example 69, N-[1-(5-ethylpyrimidin-2-yl)piperidin-4-yl]-6-[5-(methylsulfonyl)-2,3-dihydro-1H-indol-1-yl]-N-(trifluoromethyl)pyrimidin-4-amine] |
| 74% | CC(C)OC(=O)N1CCC(Oc2cc(N3CCc4cc(S(C)(=O)=O)ccc43)ncn2)CC1 [Example 18, 1-methylethyl 4-({6-[5-(methylsulfonyl)-2,3-dihydro-1H-indol-1-yl]pyrimidin-4-yl}oxy)piperidine-1-carboxylate] |
| 78% | CC(C)c1noc(N2CCC(Oc3cc(N4CCc5cc(C(=O)N(C)CCO)ccc54)ncn3)CC2)n1 [Example 30, N-(2-hydroxyethyl)-N-methyl-1-[6-({1-[3-(1-methylethyl)-1,2,4-oxadiazol-5-yl]piperidin-4-yl}oxy)pyrimidin-4-yl]-2,3-dihydro-1H-indole-5-carboxamide] |
| 80% | CCc1cnc(N2CCC(Oc3cc(N4CCc5cc(C(=O)N(C)CCO)ccc54)ncn3)CC2)nc1 [Example 21, 1-(6-{[1-(5-ethylpyrimidin-2-yl)piperidin-4-yl]oxy}pyrimidin-4-yl)-N-(2-hydroxyethyl)-N-methyl-2,3-dihydro-1H-indole-5-carboxamide] |
| 88% | Cc1cnc(N2CCC(N(c3cc(N4CCc5cc(S(C)(=O)=O)ccc54)ncn3)C(F)(F)F)CC2)nc1 [Example 73, N-[1-(5-methylpyrimidin-2-yl)piperidin-4-yl]-6-[5-(methylsulfonyl)-2,3-dihydro-1H-indol-1-yl]-N-(trifluoromethyl)pyrimidin-4-amine] |
| 87% | CC(C)(C)SC(=O)N1CCC(Oc2cc(N3CCc4cc(S(C)(=O)=O)ccc43)ncn2)CC1 [Example 36, S-tert-butyl 4-({6-[5-(methylsulfonyl)-2,3-dihydro-1H-indol-1-yl]pyrimidin-4-yl}oxy)piperidine-1-carbothioate] |
| 85% | CCc1noc(N2CCC(Oc3cc(N4CCc5cc(S(C)(=O)=O)ccc54)ncn3)CC2)n1 [Example 41, 1-(6-{[1-(3-ethyl-1,2,4-oxadiazol-5-yl)piperidin-4-yl]oxy}pyrimidin-4-yl)-5-(methylsulfonyl)-2,3-dihydro-1H-indole] |
| 77% | CCc1cnc(N2CCC(Oc3cc(N4CCc5cc(C(=O)N6CCOCC6)ccc54)ncn3)CC2)nc1 [Example 27, [1-(6-{[1-(5-ethylpyrimidin-2-yl)piperidin-4-yl]oxy}pyrimidin-4-yl)-2,3-dihydro-1H-indol-5-yl](morpholin-4-yl)methanone] |

The remaining lines, values behind:

| SMILES | GPR119 agonist activity (%) at 1 μM concentration |
| --- | --- |
| CC(C)(C)OC(=O)N1CC(Cn2ccc3c(N4CCc5cc(S(C)(=O)=O)ccc54)ncnc32)C1 [Example 14, tert-butyl 3-({4-[5-(methylsulfonyl)-2,3-dihydro-1H-indol-1-yl]-7H-pyrrolo[2,3-d]pyrimidin-7-yl}methyl)azetidine-1-carboxylate] | 82% |
| COCC(=O)Nc1ccc2c(c1)CCN2c1cc(OC2CCN(C(=O)SC(C)C)CC2)ncn1 [Example 60, S-(1-methylethyl) 4-[(6-{5-[(methoxyacetyl)amino]-2,3-dihydro-1H-indol-1-yl}pyrimidin-4-yl)oxy]piperidine-1-carbothioate] | 81% |
| CC(C)(C)OC(=O)N1CCC(n2ccc3c(N4CCc5cc(S(C)(=O)=O)ccc54)ncnc32)CC1 [Example 1, tert-butyl 4-{4-[5-(methylsulfonyl)-2,3-dihydro-1H-indol-1-yl]-7H-pyrrolo[2,3-d]pyrimidin-7-yl}piperidine-1-carboxylate] | 62% |
| CN(CCO)C(=O)c1ccc2c(c1)CCN2c1cc(OC2CCN(C(=O)OC(C)(C)C)CC2)ncn1 [Example 20, tert-butyl 4-[(6-{5-[(2-hydroxyethyl)(methyl)carbamoyl]-2,3-dihydro-1H-indol-1-yl}pyrimidin-4-yl)oxy]piperidine-1-carboxylate] | 88% |
| CC(C)OC(=O)N1CCC(n2ccc3c(N4CCc5cc([N+](=O)[O-])ccc54)ncnc32)CC1 [Example 7, 1-methylethyl 4-[4-(5-nitro-2,3-dihydro-1H-indol-1-yl)-7H-pyrrolo[2,3-d]pyrimidin-7-yl]piperidine-1-carboxylate] | 96% |
| CC(C)SC(=O)N1CCC(Oc2cc(N3CCc4cc(S(C)(=O)=O)cc(F)c43)ncn2)CC1 [Example 62, S-(1-methylethyl) 4-({6-[7-fluoro-5-(methylsulfonyl)-2,3-dihydro-1H-indol-1-yl]pyrimidin-4-yl}oxy)piperidine-1-carbothioate] | 83% |
| CC(C)(C)OC(=O)N1CCCC(n2ccc3c(N4CCc5cc(S(C)(=O)=O)ccc54)ncnc32)CC1 (centres unmarked) [Example 16, tert-butyl 4-{4-[5-(methylsulfonyl)-2,3-dihydro-1H-indol-1-yl]-7H-pyrrolo[2,3-d]pyrimidin-7-yl}azepane-1-carboxylate] | 77% |
| CC(C)(C)OC(=O)N1CCC(Cn2ccc3c(N4CCc5cc(S(C)(=O)=O)ccc54)ncnc32)C1 (stereo in doubt) [Example 12, tert-butyl (3S)-3-({4-[5-(methylsulfonyl)-2,3-dihydro-1H-indol-1-yl]-7H-pyrrolo[2,3-d]pyrimidin-7-yl}methyl)pyrrolidine-1-carboxylate] | 84% |
